Assay [1] deals with T1, CHO cells expressing α2β1 integrin (Homo sapiens, UniProt P05556+P17301).
T1 sequence (P17301 1-1181): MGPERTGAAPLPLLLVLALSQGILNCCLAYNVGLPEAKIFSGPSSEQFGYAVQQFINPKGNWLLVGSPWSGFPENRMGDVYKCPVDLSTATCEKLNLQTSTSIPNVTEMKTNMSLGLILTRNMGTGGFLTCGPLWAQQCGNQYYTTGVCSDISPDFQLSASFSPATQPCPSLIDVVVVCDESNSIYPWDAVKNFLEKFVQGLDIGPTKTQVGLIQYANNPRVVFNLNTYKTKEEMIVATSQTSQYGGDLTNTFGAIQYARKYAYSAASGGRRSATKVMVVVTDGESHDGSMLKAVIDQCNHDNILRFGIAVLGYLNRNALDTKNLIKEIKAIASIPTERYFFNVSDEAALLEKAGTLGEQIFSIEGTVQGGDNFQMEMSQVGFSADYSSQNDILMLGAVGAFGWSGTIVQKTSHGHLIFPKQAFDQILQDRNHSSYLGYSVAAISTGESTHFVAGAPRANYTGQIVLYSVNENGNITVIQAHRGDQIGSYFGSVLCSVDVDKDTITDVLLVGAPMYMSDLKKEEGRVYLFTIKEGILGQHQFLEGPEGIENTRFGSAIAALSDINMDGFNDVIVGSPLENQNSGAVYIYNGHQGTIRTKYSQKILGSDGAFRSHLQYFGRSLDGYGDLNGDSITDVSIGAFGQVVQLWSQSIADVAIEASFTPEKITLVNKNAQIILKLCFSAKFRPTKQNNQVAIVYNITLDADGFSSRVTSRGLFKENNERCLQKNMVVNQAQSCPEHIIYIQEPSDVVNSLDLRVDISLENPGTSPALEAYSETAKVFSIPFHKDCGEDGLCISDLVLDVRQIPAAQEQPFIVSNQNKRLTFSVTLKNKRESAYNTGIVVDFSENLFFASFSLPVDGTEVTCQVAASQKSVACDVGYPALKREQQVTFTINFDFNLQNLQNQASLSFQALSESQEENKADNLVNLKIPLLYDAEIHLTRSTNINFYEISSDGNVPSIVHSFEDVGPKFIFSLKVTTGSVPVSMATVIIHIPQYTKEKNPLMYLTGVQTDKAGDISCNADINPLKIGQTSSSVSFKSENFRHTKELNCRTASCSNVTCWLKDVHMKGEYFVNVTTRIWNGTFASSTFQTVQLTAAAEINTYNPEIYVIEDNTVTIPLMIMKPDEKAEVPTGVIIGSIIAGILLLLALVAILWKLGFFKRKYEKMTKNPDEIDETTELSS
In words: Cell adhesion assay, CHO-α2 cells on collagen type I. In kind it is cell-based, Chinese Hamster. The following applies: CHO cells expressing α2β1; FIG. 10A; read-out: EC50 of cell adhesion to type I collagen. On the procedure:
(§1) Chinese Hamster Ovary (CHO) cell clone expressing wild type α2 integrin was used in cell adhesion assay. Cells were suspended in serum free medium containing 0.1 mg/ml cycloheximide (Sigma) and the compounds were preincubated with the cells prior to transfer to the wells. Cells (150000/well) were allowed to attach on collagen type I coated wells (in the presence and absence of inhibitor compounds) for 2 h at +37° C. and after that non-adherent cells were removed. Fresh serum free medium was added and the living cells were detected using a cell viability kit (Roche) according to the manufacturers protocol.
(§2) For this purpose CHO cells were transfected to express α2β1 integrin on their surface as their only collagen receptor.

Assay [2] addresses T2, CHO cells expressing α2β1 integrin (Homo sapiens, UniProt P17301).
T2 sequence (P17301 1-1181): T1 sequence (P17301 1-1181)
Described as above. In kind it is cell-based, Chinese Hamster. The settings on record: FIG. 10A, 10B. How it is done: as §1, §2

As for `COC(=O)c1c(C(C)C)cc(O)c2c(O)c3c(c(O)c12)C(=O)c1cccc(O)c1C3=O` [Compound L3009, methyl 4,5,7,12-tetrahydroxy-2-methylethyl)-6,11-dioxonaphthacenecarboxylate], the EC50 in assay [1] was around 20 µM. The “inhibition of cell adhesion to collagen type I (in words)” value in assay [2] was “potent inhibitor”.

For the origin of these results see patent US20090286713A9, “Collagen Receptor I-Domain Binding Modulators” (Biotie Therapies Corporation, priority 2005, published 2009).
